The record followed here is patent US12409138B2, “Nanoparticles and nanogel drug compositions for treatment of age-related macular degeneration” (University of South Florida, priority 2019, dated 2025).

Series [1] concerns ARPE-19 cells. The experiment in a line: Wound scratch assay (cell migration, with or without VEGF165). As to conditions: 1 μM, 48 h. The class given is cell-based, human. The method, then: Wound scratch assay. Wound healing assay was performed as per the earlier reports to analyse the inhibitory effect of SM and its formulation on VEGF165 (rhVEGF; R&D Systems) induced angiogenesis. ARPE-19 cells were seeded and allowed to grow to attain 80% confluency in 24-well plates. Carefully, wounds were made by pipette tip to take out monolayer of cells as a strip. The wounds were created typically with around 300 μm of the average size and […] variation in wound width was considered for the study. To ensure removal of partially adhered cells on the plates due to creation of the wound, they were washed with sterile PBS twice. The cell wells were then treated with at 1 μM and 10 μM concentrations of SM-NP gel formulations in DMEM F12 media without FBS. Cell migration was observed by using ZEISS inverted phase contrast microscope, (Axicom 506 mono) with Axicom MRCS-ZEN2pro software and quantified by calculating the area covered by the cells because of cell migration from the wound edges towards the center area of the wound using ImageJ software. To check the effect of presence of VEGF on the cell migration, two wells were also kept at above two concentrations and treated with VEGF simultaneously. […] The width of the wound was measured using images captured by microscope. […]

In series [2] the test system is VEGF-A secretion in ARPE-19 cells. The series is described as follows: VEGF inhibition using ELISA. Format: cell-based, human. The method, then: VEGF inhibition using ELISA. Human retinal pigmented epithelium ARPE-19 cells were seeded in 24 well plate at density of 5×10^4 cells/mL and allowed to grow for 24 h in DMEM F12 medium supplemented with 10% FBS and were incubated at 37° C., 5% CO2 atmosphere till wells became confluent. After 24 h, the culture media was replaced by incomplete media which is DMEM F12 without FBS and treatment with formulation was given. […] Quantification of the VEGF secretion in the culture media was done by ELISA method using Human VEGF-A Platinum ELISA Kit following manufacturer's instructions. The protein content in the cells were estimated using Pierce BCA protein assay kit after collecting cell lysate and the by normalizing VEGF secretion to total protein. Samples were read using ELISA plate reader (Spectra MAX 190, Molecular Devices, California, USA) at 450 nm absorbance and 550 nm and difference was recorded, followed by calculating inhibition of VEGF secretion using standard curve.

A short description of series [3]: In vitro drug release study by dialysis. Format: physicochemical. As for the experimental part:
In vitro drug release study. The in vitro drug release study for SM from nanoparticles and nanoparticles incorporated thermo-reversible gel were compared with plain drug solution and was studied at 37°±0.5° C. In short, drug solution in DMSO, SM-NPs and SM-NP Gel having equivalent quantity of SM (1 mg/ml) were placed in dialysis tubes (MWCO 10 KDa) and sealed tightly by using dialysis closures. Then, the dialysis tubes were immersed in 20 ml of PBS (pH 7.4) as a release medium comprising of 0.1% Tween 80 (v/v). Release medium was allowed to stir at 150 rpm and the 0.5 mL of samples were withdrawn at 0.25, 0.5, 1, 2, 4, 6, 12, 24, 48, 72, 96, 120, 144 and 168 h. The volumes were made up with fresh release medium after each sampling. The concentration of SM in a sample was determined by UV spectroscopy at 432 nm after dilution with methanol in ratio of 1:10. For all the formulations, in vitro release tests were carried out in triplicate and results were described as cumulative quantity of drug released at each point of time.

Series [4] has as its system ARPE-19 cells. The experiment in a line: Cytotoxicity study (MTT assay). As to conditions: 20 μM. Format: cell-based, human. The method, then:
Cell culture. ARPE-19, a human retinal pigment epithelial cell line ([…]) cells were grown and maintained in DMEM F12 medium supplemented with 10% v/v FBS and 1% 10,000 U/ml penicillin-streptomycin antibiotics. The cell cultures were allowed to incubate at 37° C. temperature, in a humidified atmosphere with 5% CO2. Cytotoxicity study. The MTT assay was carried out to determine cytotoxicity of SM-NPs as well as in SM-NPs gel in comparison with pure drug solution, in ARPE-19, human retinal pigment epithelial cells. The cells were seeded in 200 μl of DMEM F12 supplemented with 10% FBS in a 96 well plate (Corning, N.Y.) at a seeding density of 5000 cells/well and incubated for 24 h at 37° C., 5% CO2 atmosphere to allow attachment and growth of the cells. SM drug solution and formulations with various concentrations of SM were prepared by first dissolving SM in DMSO and then diluting them with DMEM F12 medium without FBS. The cells were treated with formulations after 24 h of seeding and incubated for […]. […] Intensity of color produced after dissolution of formazan crystals was quantified by measuring optical density at 595 nm wavelength by microtiter plate reader (Spectra MAX 190, Molecular Devices, California, USA). […] Cell viability were calculated graphically from concentration vs viability curves, considering the optical density of control well as 100% viable.

In the case of `CCN(CC)CCNC(=O)c1c(C)[nH]c(/C=C2\C(=O)Nc3ccc(F)cc32)c1C` [SM solution, Sunitinib malate], in series [1], the Wound recovery is listed as 80±1.8%. In addition, the “VEGF secretion” value in series [2] (12 hr, compared to the NPs treatment) was “noticeably reduced”. Moreover, the VEGF expression levels in series [2] (48 h, 10 μM SM equivalent, control = 100%) turned out to be 90%. Also, in series [2] (Homo sapiens, ARPE-19, 12 h, 10 μM SM equivalent, control = 100%, read-out: Inhibition of VEGF levels), the activity at 10 µM was 56 ± 3%. The Release kinetics model entry in series [3] is “first order drug release”. In addition, the “Cumulative drug release at 1 hr” value in series [3] (PBS pH 7.4, 0.1% Tween 80, 37° C.) is recorded as 80%±2.5%. The figures for the Viability lost in series [4] (24 h) and in series [4] (48 h) were 25% and 30%, respectively.
